According to publication PMC6813460, “Enhancing PLP-Binding Capacity of Class-III ω-Transaminase by Single Residue Substitution” (Frontiers in Bioengineering and Biotechnology, 2019):

What was measured:
[1] = biological target: Pseudomonas fluorescens ω-transaminase (Pseudomonas fluorescens); test: crystal structure; PfTA crystallised with PLP; sitting drop vapor diffusion at 20°C; 6 mg/mL protein in 50 mM HEPES pH 7.5, 300 mM NaCl, 0.1 mM PLP, 1% glycerol, 20 mM DTT mixed 1:1 with 0.1 M sodium citrate pH 5.6, 12% w/v PEG 6000, 0.1 M lithium sulfate; 2.2 Å; interfaces analysed with the PISA server
[2] = biological target: PfTA (Pseudomonas fluorescens); test: differential scanning fluorimetry (SYPRO Orange), T1/[…] vs PLP, 1-site fit; format: binding; settings: apo form, 1 mg/mL protein, PLP 1–250 μM, 50 mM phosphate pH 8; cofactor forms internal aldimine (covalent)
HeTA [3] = biological target: T1, HeTA (Halomonas elongata, UniProt E1V913, N120V); test: as above; format: binding
T1 construct: gene spuC; IMAC-purified recombinant from E. coli BL21 (DE3) Star; dimer

CvTA [4] = biological target: T2, CvTA (Chromobacterium violaceum, UniProt Q7NWG4); test: as above; format: binding
T2 construct: gene CV_2025; IMAC-purified recombinant from E. coli BL21 (DE3) Star; dimer
T2 sequence (Q7NWG4 1-459): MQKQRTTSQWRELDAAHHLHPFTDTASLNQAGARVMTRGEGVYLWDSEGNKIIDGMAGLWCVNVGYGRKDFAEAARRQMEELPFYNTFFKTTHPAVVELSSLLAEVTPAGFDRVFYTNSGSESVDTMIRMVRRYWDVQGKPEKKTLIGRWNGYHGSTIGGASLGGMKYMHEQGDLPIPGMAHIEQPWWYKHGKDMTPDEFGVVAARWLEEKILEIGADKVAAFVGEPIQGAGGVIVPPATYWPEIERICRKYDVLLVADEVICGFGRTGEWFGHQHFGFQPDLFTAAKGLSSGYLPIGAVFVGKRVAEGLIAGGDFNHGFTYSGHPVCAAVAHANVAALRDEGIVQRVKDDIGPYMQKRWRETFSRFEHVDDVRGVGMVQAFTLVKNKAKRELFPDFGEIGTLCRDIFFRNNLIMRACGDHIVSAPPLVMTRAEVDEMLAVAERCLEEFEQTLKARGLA

CvTA [5] = biological target: T3, CvTA (Chromobacterium violaceum, UniProt Q7NWG4, V124N); test: biochemical
T3 construct: gene CV_2025

HeTA [6] = biological target: T4, HeTA (Halomonas elongata, UniProt E1V913); test: differential scanning fluorimetry (SYPRO Orange), T1/[…] vs PLP, 1-site fit; format: binding
T4 construct: gene spuC; IMAC-purified recombinant from E. coli BL21 (DE3) Star; dimer
T4 sequence (E1V913 1-461): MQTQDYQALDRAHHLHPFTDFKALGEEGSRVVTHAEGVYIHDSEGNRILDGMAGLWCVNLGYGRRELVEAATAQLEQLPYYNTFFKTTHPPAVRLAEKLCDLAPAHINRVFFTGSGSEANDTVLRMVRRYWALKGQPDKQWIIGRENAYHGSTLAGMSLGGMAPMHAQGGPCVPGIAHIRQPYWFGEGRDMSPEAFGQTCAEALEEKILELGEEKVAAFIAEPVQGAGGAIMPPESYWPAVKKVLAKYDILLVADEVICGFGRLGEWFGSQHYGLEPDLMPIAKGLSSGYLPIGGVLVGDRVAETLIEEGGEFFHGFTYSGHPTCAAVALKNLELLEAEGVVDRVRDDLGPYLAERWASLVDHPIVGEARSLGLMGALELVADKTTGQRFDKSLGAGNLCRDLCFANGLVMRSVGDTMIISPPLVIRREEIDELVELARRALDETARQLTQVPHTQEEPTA

T1 sequence (E1V913 entry or part of it N120V): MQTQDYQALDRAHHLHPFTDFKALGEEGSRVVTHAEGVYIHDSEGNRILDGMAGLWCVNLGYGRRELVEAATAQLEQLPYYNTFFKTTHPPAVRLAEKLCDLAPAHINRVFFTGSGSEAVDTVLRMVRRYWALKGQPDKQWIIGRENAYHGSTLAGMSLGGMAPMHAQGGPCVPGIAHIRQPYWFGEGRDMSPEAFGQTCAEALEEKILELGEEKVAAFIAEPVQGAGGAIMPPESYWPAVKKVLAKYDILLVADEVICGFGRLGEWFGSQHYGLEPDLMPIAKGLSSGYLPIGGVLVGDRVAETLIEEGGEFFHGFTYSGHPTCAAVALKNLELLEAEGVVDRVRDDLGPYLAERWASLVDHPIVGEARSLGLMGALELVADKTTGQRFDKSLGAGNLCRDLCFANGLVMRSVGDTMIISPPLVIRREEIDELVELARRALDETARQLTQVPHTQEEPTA

Molecule	stoichiometry N [1]	Kd [2] [µM]	Kd (HeTA [3]) [µM]	Kd (CvTA [4]) [µM]	Kd (CvTA [5]) [µM]	Kd (HeTA [6]) [µM]
Pseudomonas fluorescens ω-transaminase (enzyme)	4					
Cc1ncc(COP(=O)(O)O)c(C=O)c1O [PLP]		14.8 ± 2.5	30.3 ± 4.1	59 ± 15.8	16.4 ± 5.6	12.4 ± 3.6
